# Experimental data as given in EP0539170A1, “Benzodiazepine derivatives and their use as antagonists of cholecystokinin and/or gastrin receptors” (priority 1991, dated 1993).
# pIC50: −log10 of the molar value. Counter-ions that a name gives are not always drawn.
# Target: T1, CCK Receptor (Pancreas) (Rattus norvegicus, UniProt P30551)
# T1 construct: The whole pancreas was dissected free of fat tissue and was homogenized; from tissue; host or cells: rat pancreas membrane homogenate
# T1 sequence (P30551 1-444): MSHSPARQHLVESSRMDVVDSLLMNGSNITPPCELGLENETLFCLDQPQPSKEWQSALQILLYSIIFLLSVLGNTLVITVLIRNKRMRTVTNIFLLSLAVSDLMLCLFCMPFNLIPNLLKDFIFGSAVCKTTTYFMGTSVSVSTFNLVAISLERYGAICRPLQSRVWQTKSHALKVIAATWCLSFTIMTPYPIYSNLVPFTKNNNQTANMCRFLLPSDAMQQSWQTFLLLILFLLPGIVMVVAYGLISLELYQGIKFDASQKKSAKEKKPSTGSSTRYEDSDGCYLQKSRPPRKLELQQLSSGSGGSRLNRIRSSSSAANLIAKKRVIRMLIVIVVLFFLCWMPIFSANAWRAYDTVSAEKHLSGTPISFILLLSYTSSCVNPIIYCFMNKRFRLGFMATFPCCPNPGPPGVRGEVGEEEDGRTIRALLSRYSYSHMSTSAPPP
# Assay: CCK Receptor Binding (Pancreas), inhibition of specific 125I-CCK-8 binding
# Set-up: species or system Sprague-Dawley rats
# Conditions: rat whole pancreas membranes; 50 pM 125I-CCK-8; 25°C for 2 hours
# Method: CCK-8 sulphated was radiolabelled with ¹²⁵I-Bolton Hunter reagent (2000 Ci/mmole). Receptor binding was performed according to Chang and Lotti (Proc. Natl. Acad. Sci. 83, 4923-4926, 1986) with minor modifications.
# Male Sprague-Dawley rats (150-200g) were sacrificed by decapitation. The whole pancreas was dissected free of fat tissue and was homogenized in 25 volumes of ice-cold 10 mM N-2-hydroxyethyl-piperazine-N′-2-ethane sulphonic acid (HEPES) buffer with 0.1% soya bean trypsin inhibitor (pH 7.4 at 25°C) with a Kinematica Polytron. The homogenates were centrifuged at 47,800 g for 10 min. Pellets were resuspended in 10 volumes of binding assay buffer (20mM (HEPES)), 1mM ethylene glycol-bis-(β-aminoethylether-N,N′-tetraacetic acid) (EGTA), 5mM MgCl₂, 150 mM NaCl, bacitracin 0.25 mg/ml, soya bean trypsin inhibitor 0.1 mg/ml, and bovine serum albumin 2 mg/ml pH 6.5 at 25°C) using a Teflon (trademark) homogenizer, 15 strokes at 500 rpm. The homogenate was further diluted in binding assay buffer to give a final concentration of 0.5 mg original wet weight/1 ml buffer. […] All assays were run in duplicate. The reaction mixtures were incubated at 25°C for 2 hours and the reaction terminated by rapid filtration (Brandell 24 well cell harvester) over Whatman GF/C filters, washing 3 x 4 mls with ice-cold 100 Mm NaCl. The radioactivity on the filters was counted with a LKB gamma counter.
# Drug displacement studies were performed with at least 10 concentrations of compounds of Formula I and the IC₅₀ values were determined by regression analysis IC₅₀ refers to the concentration of the compound required to inhibit 50% of specific binding of ¹²⁵I-CCK-8.
row,Compound,pIC50
1,"Cc1cccc(NC(=O)NC2N=C(N3CCCCCCC3)c3ccccc3N(C)C2=O)c1 (single isomer, unassigned; (+)) [Example 52, (+)-N-[2,3-Dihydro-5-(heptamethyleneimin-1-yl)-1-methyl-2-oxo-1H-1,4-benzodiazepin-3-yl]-N′-[3-methylphenyl] urea hydrochloride]",7.93
2,"CN1C(=O)C(NC(=O)Nc2ccc3c(c2)CCC3)N=C(N2CCCCCC2)c2ccccc21 (single isomer, unassigned; (+)) [Example 59, (+)-N-(2,3-Dihydro-5-(homopiperidin-1-yl)-1-methyl-2-oxo-1H-1,4-benzodiazepin-3-yl]-N′-[5-indanyl] urea hydrochloride]",8.05
3,"CCCN1C(=O)C(NC(=O)Nc2cccc(C)c2)N=C(N2CCSCC2)c2ccccc21 (single isomer, unassigned; (+)) [Example 70, (+)-N-[2,3-Dihydro-2-oxo-1-propyl-5-(thiomorpholin-4-yl)-1H-1,4-benzodiazepin-3-yl]-N′-[3-methylphenyl] urea hydrochloride]",7.98
4,"CCCN1C(=O)C(NC(=O)Nc2cccc(C)c2)N=C(N2CCN(C)CC2)c2ccccc21 (single isomer, unassigned; (-)) [Example 24, (-)-N-(2,3-Dihydro-5-(4-methylpiperazin-1-yl)-2-oxo-1-propyl-1H-1,4-benzodiazepin-3-yl]-N′-[3-methylphenyl] urea]",< 5.52
5,"Cc1cccc(NC(=O)NC2N=C(N3CCCCCC3)c3ccccc3N(C)C2=O)c1 (single isomer, unassigned; (-)) [Example 28, (-)-N-[2,3-Dihydro-5-(homopiperidin-1-yl)-1-methyl-2-oxo-1H-1,4-benzodiazepin-3-yl]-N′-[3-methylphenyl] urea]",< 5.52
6,"CCCN1C(=O)C(NC(=O)Nc2ccc3c(c2)CCC3)N=C(N2CCN(C)CC2)c2ccccc21 (single isomer, unassigned; (-)) [Example 34, (-)-N-[2,3-Dihydro-5-(4-methylpiperazin-1-yl)-2-oxo-1-propyl-1H-1,4-benzodiazepin-3-yl]-N′-[5-indanyl] urea]",< 5.52
7,"Cc1cccc(NC(=O)NC2N=C(N3CCCCCCC3)c3ccccc3N(C)C2=O)c1 (single isomer, unassigned; (-)) [Example 51, (-)-N-[2,3-Dihydro-5-(heptamethyleneimin-1-yl)-1-methyl-2-oxo-1H-1,4-benzodiazepin-3-yl]-N′-[3-methylphenyl] urea hydrochloride]",5.72
8,"CN1C(=O)C(NC(=O)Nc2ccc3c(c2)CCC3)N=C(N2CCCCCC2)c2ccccc21 (single isomer, unassigned; (-)) [Example 58, (-)-N-[2,3-Dihydro-5-(homopiperidin-1-yl)-1-methyl-2-oxo-1H-1,4-benzodiazepin-3-yl]-N′-[5-indanyl] urea hydrochloride]",5.61

# More lines, now with the values ahead:
row,pIC50,Compound
1,8.46,"CCc1cccc(NC(=O)NC2N=C(N3CCCCCC3)c3ccccc3N(C)C2=O)c1 (single isomer, unassigned; (+)) [Example 68, (+)-N-[2,3-Dihydro-5-(homopiperidin-1-yl)-1-methyl-2-oxo-1H-1,4-benzodiazepin-3-yl]-N′-[3-ethylphenyl] urea hydrochloride]"
2,5.33,"CCc1cccc(NC(=O)NC2N=C(N3CCN(C)CC3)c3ccccc3N(CC(C)C)C2=O)c1 (single isomer, unassigned; (-)) [Example 26, (-)-N-[2,3-Dihydro-5-(4-methylpiperazin-1-yl)-1-(2-methylpropyl)-2-oxo-1H-1,4-benzodiazepin-3-yl]-N#MIN#-[3-ethylphenyl] urea]"
3,< 5.52,"CCCN1C(=O)C(NC(=O)Nc2cccc(N(C)C)c2)N=C(N2CCN(C)CC2)c2ccccc21 (single isomer, unassigned; (-)) [Example 41, (-)-N-[2,3-Dihydro-5-(4-methylpiperazin-1-yl)-2-oxo-1-propyl-1H-1,4-benzodiazepin-3-yl]-N′-[3-(dimethylamino)phenyl] urea]"
4,6.51,"CCc1cccc(NC(=O)NC2N=C(N3CCCCCC3)c3ccccc3N(C)C2=O)c1 (single isomer, unassigned; (-)) [Example 67, (-)-N-[2,3-Dihydro-5-(homopiperidin-1-yl)-1-methyl-2-oxo-1H-1,4-benzodiazepin-3-yl]-N′-[3-ethylphenyl] urea hydrochloride]"
5,6.29,"CCCN1C(=O)C(NC(=O)Nc2cccc(C)c2)N=C(N2CCSCC2)c2ccccc21 (single isomer, unassigned; (-)) [Example 69, (-)-N-[2,3-Dihydro-2-oxo-1-propyl-5-(thiomorpholin-4-yl)-1H-1,4-benzodiazepin-3-yl]-N′-[3-methylphenyl] urea hydrochloride]"
